# What was measured:
# Type in all cases: in vivo
# [1] = tested on: Women with dysfunctional metrorrhagias; experiment: Acute treatment of metrorrhagias with onapristone; settings: one-time oral 200-400 mg, preferably luteal phase
# Method: Acute Treatment of Metrorrhagias by One-time Administration of Onapristone Women with dysfunctional metrorrhagias are orally treated on a one-time basis with 200-400 mg of onapristone. Preferred is treatment in the luteal phase of the cycle. The treatment results in a cessation of bleeding within 2-4 days.
# [2] = tested on: Women with menorrhagias and hypermenorrhea; experiment: Prophylactic treatment of menorrhagias and hypermenorrhea with onapristone; settings: 3-6 cycles
# Method: Prophylactic Treatment of Menorrhagias and Hypermenorrhea by One-time Administration of Onapristone Women with menorrhagias and hypermenorrhea are orally treated with 200-400 mg of onapristone every 28 days. […] The treatment is continued for 3-6 cycles. Prophylactic Treatment of Menorrhagias and Hypermenorrhea by Repeated Administration of Onapristone Women with menorrhagias and hypermenorrhea are orally treated every 28 days for a maximum of 10 days with 200-400 mg/day of onapristone. […] The treatment is continued for 3-6 cycles.
# [3] = tested on: Women with dysfunctional metrorrhagias; experiment: Prophylactic treatment of metrorrhagias with onapristone; settings: 3-6 cycles
# Method: Prophylactic Treatment of Metrorrhagias by One-time Administration of Onapristone Women with dysfunctional metrorrhagias are orally treated on a one-time basis with 200-400 mg of onapristone every 28 days. […] The treatment is continued for 3-6 cycles. Prophylactic Treatment of Metrorrhagias by Repeated Administration of Onapristone Women with dysfunctional metrorrhagias are orally treated every 28 days for a maximum of 10 days with 200-400 mg/day of onapristone. […] The treatment is continued over 3-6 cycles.
# [4] = tested on: Women with menorrhagias and hypermenorrhea; experiment: Acute treatment of menorrhagias and hypermenorrhea with onapristone
# Method: Acute Treatment of Menorrhagias and Hypermenorrhea by One-time Administration of Onapristone Women with menorrhagias and hypermenorrhea are orally treated on a one-time basis with 200-400 mg of onapristone on the 28th day of the cycle or on the first day of bleeding. The treatment induces menstruation-like bleeding of normal intensity (about 30 ml) and duration (about 5 days). Acute Treatment of Menorrhagias and Hypermenorrhea by Repeated Administration of Onapristone Women with menorrhagias and hypermenorrhea are orally treated until bleeding ceases on the 28th day of the cycle or on the first day of bleeding with 200-400 mg/day of onapristone, at most over 10 days.
# [5] = one-time oral 200-400 mg every 28 days
# [6] = repeated oral 200-400 mg/day every 28 days for a maximum of 10 days
# [7] = one-time oral 200-400 mg on 28th day of cycle or first day of bleeding
# [8] = repeated oral 200-400 mg/day until bleeding ceases, at most 10 days, from 28th day of cycle or first day of bleeding
compound,measurement,setting,value
"CN(C)c1ccc([C@H]2C[C@]3(C)[C@@H](CC[C@]3(O)CCCO)[C@@H]3CCC4=CC(=O)CCC4=C32)cc1 [onapristone, 11β-(4-dimethylaminophenyl)-17α-hydroxy-17β-(3-hydroxy-propyl)-13α-methyl-4,9-gonadien-3-one]",cessation of bleeding within,[1],2 to 4 days
same,duration of induced menstruation-like bleeding,[2]; [5],about 5 days
same,intensity of induced menstruation-like bleeding,[2]; [5],about 30 ml
same,occurrence of menorrhagias and hypermenorrhea,[2]; [5],prevents the occurrence of menorrhagias and hypermenorrhea
same,duration of induced menstruation-like bleeding,[2]; [6],about 5 days
same,intensity of induced menstruation-like bleeding,[2]; [6],about 30 ml
same,occurrence of menorrhagias and hypermenorrhea,[2]; [6],prevents the occurrence of menorrhagias and hypermenorrhea
same,duration of induced menstruation-like bleeding,[3]; [5],about 5 days
same,intensity of induced menstruation-like bleeding,[3]; [5],about 30 ml
same,occurrence of metrorrhagias,[3]; [5],prevents the occurrence of metrorrhagias
same,duration of induced menstruation-like bleeding,[3]; [6],about 5 days
same,intensity of induced menstruation-like bleeding,[3]; [6],about 30 ml
same,occurrence of metrorrhagias,[3]; [6],prevents the occurrence of metrorrhagias
same,duration of induced menstruation-like bleeding,[4]; [7],about 5 days
same,intensity of induced menstruation-like bleeding,[4]; [7],about 30 ml
same,increased blood loss,"[4]; repeated oral 200-400 mg/day until bleeding ceases, at most 10 days",prevents increased blood loss
same,duration of induced menstruation-like bleeding,[4]; [8],about 5 days
same,intensity of induced menstruation-like bleeding,[4]; [8],about 30 ml

# Reference: patent publication US6451780B1, “Progesterone antagonists for the production of pharmaceutical agents for the treatment of dysfunctional uterine bleeding” (Schering Aktiengesellschaft, priority 1995, dated 2002)
